In the NIST ThermoML archive (doi:10.1021/je049918m):
Where “and” joins values, the source holds several entries; their conditions need not be identical. Identical values can stand only once. Numbers after ± are expanded uncertainties.

Conditions: Liquid, Falling or rolling sphere viscometry

[2H]O[2H] [water-d2]
Conditions | viscosity
255.65 K, 212200 kPa | 3.963 ± 0.055 mPa·s
255.65 K, 220100 kPa | 3.973 ± 0.055 mPa·s
255.65 K, 239200 kPa | 4.012 ± 0.055 mPa·s
255.65 K, 249500 kPa | 4.036 ± 0.056 mPa·s
258.15 K, 196900 kPa | 3.566 ± 0.049 mPa·s
258.15 K, 215300 kPa | 3.588 ± 0.049 mPa·s
258.15 K, 242900 kPa | 3.629 ± 0.05 mPa·s
258.15 K, 271000 kPa | 3.697 ± 0.051 mPa·s
258.15 K, 298500 kPa | 3.777 ± 0.052 mPa·s
258.15 K, 315600 kPa | 3.835 ± 0.053 mPa·s
263.15 K, 153200 kPa | 2.939 ± 0.04 mPa·s
263.15 K, 160800 kPa | 2.937 ± 0.04 mPa·s
263.15 K, 185300 kPa | 2.944 ± 0.04 mPa·s
263.15 K, 200800 kPa | 2.953 ± 0.041 mPa·s
263.15 K, 249500 kPa | 3.02 ± 0.042 mPa·s
263.15 K, 299600 kPa | 3.125 ± 0.043 mPa·s
263.15 K, 347100 kPa | 3.26 ± 0.045 mPa·s
263.15 K, 383400 kPa | 3.381 ± 0.047 mPa·s
268.15 K, 109700 kPa | 2.494 ± 0.034 mPa·s
268.15 K, 125300 kPa | 2.475 ± 0.034 mPa·s
268.15 K, 150900 kPa | 2.468 ± 0.034 mPa·s
268.15 K, 174700 kPa | 2.464 ± 0.034 mPa·s
268.15 K, 201200 kPa | 2.481 ± 0.034 mPa·s
268.15 K, 251400 kPa | 2.535 ± 0.035 mPa·s
268.15 K, 289200 kPa | 2.601 ± 0.036 mPa·s
268.15 K, 325500 kPa | 2.675 ± 0.037 mPa·s
268.15 K, 390600 kPa | 2.85 ± 0.039 mPa·s
273.15 K, 52000 kPa | 2.196 ± 0.03 mPa·s
273.15 K, 69600 kPa | 2.159 ± 0.03 mPa·s
273.15 K, 99700 kPa | 2.116 ± 0.029 mPa·s
273.15 K, 130400 kPa | 2.098 ± 0.029 mPa·s
273.15 K, 150600 kPa | 2.096 ± 0.029 mPa·s
273.15 K, 177300 kPa | 2.103 ± 0.029 mPa·s
273.15 K, 204300 kPa | 2.119 ± 0.029 mPa·s
273.15 K, 223000 kPa | 2.135 ± 0.029 mPa·s
273.15 K, 252900 kPa | 2.165 ± 0.03 mPa·s
273.15 K, 279500 kPa | 2.203 ± 0.03 mPa·s
273.15 K, 302900 kPa | 2.234 ± 0.031 mPa·s
273.15 K, 350500 kPa | 2.318 ± 0.032 mPa·s
273.15 K, 357500 kPa | 2.336 ± 0.032 mPa·s
273.15 K, 395200 kPa | 2.435 ± 0.034 mPa·s
278.15 K, 100 kPa | 1.987 ± 0.027 mPa·s
278.15 K, 3100 kPa | 1.977 ± 0.027 mPa·s
278.15 K, 5600 kPa | 1.968 ± 0.027 mPa·s
278.15 K, 8100 kPa | 1.961 ± 0.027 mPa·s
278.15 K, 10800 kPa | 1.952 ± 0.027 mPa·s
278.15 K, 25900 kPa | 1.911 ± 0.026 mPa·s
278.15 K, 50800 kPa | 1.862 ± 0.026 mPa·s
278.15 K, 75600 kPa | 1.829 ± 0.025 mPa·s
278.15 K, 100700 kPa | 1.811 ± 0.025 mPa·s
278.15 K, 125600 kPa | 1.803 ± 0.025 mPa·s
278.15 K, 150500 kPa | 1.802 ± 0.025 mPa·s
278.15 K, 174500 kPa | 1.809 ± 0.025 mPa·s
278.15 K, 199100 kPa | 1.822 ± 0.025 mPa·s
278.15 K, 224100 kPa | 1.841 ± 0.025 mPa·s
278.15 K, 249600 kPa | 1.865 ± 0.026 mPa·s
278.15 K, 299700 kPa | 1.922 ± 0.026 mPa·s
278.15 K, 349100 kPa | 1.993 ± 0.027 mPa·s
283.15 K, 100 kPa | 1.677 ± 0.023 mPa·s
283.15 K, 200 kPa | 1.676 ± 0.023 mPa·s and 1.677 ± 0.023 mPa·s
283.15 K, 3000 kPa | 1.67 ± 0.023 mPa·s
283.15 K, 5600 kPa | 1.665 ± 0.023 mPa·s
283.15 K, 8100 kPa | 1.66 ± 0.023 mPa·s
283.15 K, 10800 kPa | 1.655 ± 0.023 mPa·s
283.15 K, 25800 kPa | 1.629 ± 0.022 mPa·s
283.15 K, 50800 kPa | 1.597 ± 0.022 mPa·s and 1.598 ± 0.022 mPa·s
283.15 K, 100800 kPa | 1.569 ± 0.022 mPa·s and 1.567 ± 0.022 mPa·s
283.15 K, 125500 kPa | 1.566 ± 0.022 mPa·s
283.15 K, 150600 kPa | 1.57 ± 0.022 mPa·s
283.15 K, 150800 kPa | 1.569 ± 0.022 mPa·s
283.15 K, 175500 kPa | 1.579 ± 0.022 mPa·s
283.15 K, 199400 kPa | 1.592 ± 0.022 mPa·s
283.15 K, 199700 kPa | 1.592 ± 0.022 mPa·s
283.15 K, 224300 kPa | 1.608 ± 0.022 mPa·s
283.15 K, 249600 kPa | 1.629 ± 0.022 mPa·s
283.15 K, 249700 kPa | 1.63 ± 0.022 mPa·s
283.15 K, 299200 kPa | 1.678 ± 0.03 mPa·s
283.15 K, 299600 kPa | 1.678 ± 0.03 mPa·s
283.15 K, 348600 kPa | 1.737 ± 0.024 mPa·s
283.15 K, 348700 kPa | 1.737 ± 0.024 mPa·s
298.15 K, 100 kPa | 1.097 ± 0.015 mPa·s [middle of 6 runs]
298.15 K, 200 kPa | 1.095 ± 0.015 mPa·s
298.15 K, 5600 kPa | 1.092 ± 0.015 mPa·s
298.15 K, 8000 kPa | 1.09 ± 0.015 mPa·s
298.15 K, 10300 kPa | 1.091 ± 0.015 mPa·s
298.15 K, 10700 kPa | 1.09 ± 0.015 mPa·s
298.15 K, 25700 kPa | 1.084 ± 0.015 mPa·s
298.15 K, 30700 kPa | 1.084 ± 0.015 mPa·s
298.15 K, 50700 kPa | 1.079 ± 0.015 mPa·s and 1.081 ± 0.015 mPa·s
298.15 K, 60700 kPa | 1.079 ± 0.015 mPa·s
298.15 K, 75600 kPa | 1.08 ± 0.015 mPa·s
298.15 K, 90600 kPa | 1.081 ± 0.015 mPa·s
298.15 K, 90700 kPa | 1.081 ± 0.015 mPa·s
298.15 K, 100600 kPa | 1.081 ± 0.015 mPa·s
298.15 K, 120700 kPa | 1.086 ± 0.015 mPa·s
298.15 K, 125600 kPa | 1.087 ± 0.015 mPa·s
298.15 K, 130600 kPa | 1.089 ± 0.015 mPa·s
298.15 K, 150600 kPa | 1.094 ± 0.015 mPa·s and 1.095 ± 0.015 mPa·s
298.15 K, 170500 kPa | 1.104 ± 0.015 mPa·s
298.15 K, 175600 kPa | 1.105 ± 0.015 mPa·s
298.15 K, 180600 kPa | 1.108 ± 0.015 mPa·s
298.15 K, 200600 kPa | 1.117 ± 0.015 mPa·s
298.15 K, 210200 kPa | 1.122 ± 0.015 mPa·s
298.15 K, 210600 kPa | 1.123 ± 0.015 mPa·s
298.15 K, 225500 kPa | 1.131 ± 0.016 mPa·s
298.15 K, 240600 kPa | 1.141 ± 0.016 mPa·s
298.15 K, 249700 kPa | 1.146 ± 0.016 mPa·s
298.15 K, 270500 kPa | 1.16 ± 0.016 mPa·s
298.15 K, 299600 kPa | 1.181 ± 0.016 mPa·s
298.15 K, 300300 kPa | 1.182 ± 0.016 mPa·s
298.15 K, 330100 kPa | 1.205 ± 0.017 mPa·s
298.15 K, 331900 kPa | 1.205 ± 0.017 mPa·s
298.15 K, 349000 kPa | 1.221 ± 0.017 mPa·s
298.15 K, 359800 kPa | 1.23 ± 0.017 mPa·s
298.15 K, 389400 kPa | 1.257 ± 0.017 mPa·s
